Source: US8735397B2, “Method for treating schizophrenia and related diseases” (Vanderbilt University, priority 2010, dated 2014)
“Also recorded” adds a separate entry of the source. Counter-ions that a name gives are not always drawn.

Legend:
[1] = test system: PCP-induced NOR deficits in sub-chronic PCP treated rats; test: Novel object recognition (NOR) test after subchronic PCP treatment; assay type: in vivo, Female Long-Evans rats; details: for Acquisition (sec) Left, exploration time / Acquisition (sec) Right, exploration time / Retention (sec) Familiar, exploration time / Retention (sec) Novel, exploration time: mean±SEM; for Effective dose for reversing PCP-induced NOR deficits / Sub-effective dose in PCP-induced NOR deficit: single agent, acute administration after subchronic PCP
Method: Female Long-Evans rats received vehicle or PCP (2 mg/kg, i.p.) twice daily for 7 days, followed by a 7-day washout period (n=6-9/group). Phencyclidine (PCP) which is known to induce schizophrenia-like symptoms in human normal subjects and to exacerbate symptoms in patients with schizophrenia was dissolved in distilled water and administered in a volume of 1 ml/kg.
On the test day, in the first set of experiments, lurasidone HCl (0.03 and 0.1 mg/kg; produced by Dainippon Sumitomo Pharma Co., Ltd.), clozapine (0.3 mg/kg), LY379268 (1 mg/kg; Tocris Bioscience) alone, or haloperidol (0.1 mg/kg), pimavanserin (3 mg/kg), lurasidone HCl (0.03 mg/kg), clozapine (0.1 mg/kg) in combination with LY379268 (1 mg/kg) were administered intraperitoneally in a volume of 1 ml/kg, 30 min before the novel object recognition (NOR) test. In the second set of experiments, LY404039 (1 mg/kg; produced by Dainippon Sumitomo Pharma Co., Ltd.) alone was orally administered in a volume of 4 ml/kg 60 min before the novel object recognition (NOR) test. For combination with lurasidone HCl, LY404039 (1 mg/kg, p.o.) and lurasidone HCl (0.03 mg/kg, i.p.) were administered 60 min and 30 min before the novel object recognition (NOR) test, respectively. In the third set of experiments, BINA (30 mg/kg; produced by Dainippon Sumitomo Pharma Co., Ltd.) alone or BINA (30 mg/kg) in combination with lurasidone HCl (0.03 mg/kg) was administered intraperitoneally in a volume of 1 ml/kg 30 min before the novel object recognition (NOR) test.
Haloperidol, pimavanserin, and LY404039 were dissolved in distilled water. Lurasidone HCl was dissolved 0.5% methylcellulose, 0.2% Tween 80. Clozapine was dissolved in a small amount of 0.1 M phosphoric acid, and the pH was adjusted to 6 to 7 with 0.1 N NaOH. LY379268 was dissolved in saline. BINA was dissolved in 10% Tween 80, 10% 1N NaOH, and the pH was adjusted to 7 with 1N HCl.
The object recognition test was performed in an open field comprising a square box made of Plexiglas (52/52/31 cm) placed 37 cm above the floor on an immoveable stand. The floor of the box was white with black gridlines forming nine identical squares on it. All other walls were black. A video camera connected to a video recorder and monitor was positioned above the box. The objects used for the test consisting of four heavy pyramidal structures made of metal or Perspex that could not be displaced by the animals. Care was taken to ensure that these objects were not of any natural significance to the rats.
Testing was carried out according to a previously validated method (Grayson et al., Behay. Brain Res. 2007 184, 31-38; Snigdha et al., J. Pharmacol. Exp. Ther., 2010 332 (2), 622-31). The rats were familiarized to the test environment and NOR arena before the test day. Habituation consisting of placing the subjects in the empty NOR arena for 1 h, on the day before the test day (day 1). Before behavioral testing on day 2, rats were given a further 3-min habituation. For each experimental trial after the 3-min habituation period, the rats were given two 3-min trials (T1 and T2), separated by a 1-min intertrial interval in the home cage during which the objects were changed and the arena was cleaned. In Trial 1 (T1) or the acquisition trial, the animals were allowed to explore two identical objects (A1 and A2) for 3 min. In the second trial (T2) or the retention trial, the animals explored a familiar object (A) from T1 and a novel object (B) for 3 min. The familiar object presented during T2 was a duplicate of the object presented in T1 to avoid any olfactory trails. Each rat was tested three or four times in the NOR paradigm. To reduce carryover effects, a 7-day washout period was given between each of the test sessions. The criterion for continuing to test the rats was based on mean total exploration time in the acquisition or retention phase 5 seconds. […] This happened rarely and not enough to affect the ability to use the remaining animals for analysis. […]

dopamine D2 receptor = dopamine D2 receptor (Homo sapiens, UniProt P14416); details: cited from earlier work
dopamine D2 receptor, sequence (P14416 whole entry): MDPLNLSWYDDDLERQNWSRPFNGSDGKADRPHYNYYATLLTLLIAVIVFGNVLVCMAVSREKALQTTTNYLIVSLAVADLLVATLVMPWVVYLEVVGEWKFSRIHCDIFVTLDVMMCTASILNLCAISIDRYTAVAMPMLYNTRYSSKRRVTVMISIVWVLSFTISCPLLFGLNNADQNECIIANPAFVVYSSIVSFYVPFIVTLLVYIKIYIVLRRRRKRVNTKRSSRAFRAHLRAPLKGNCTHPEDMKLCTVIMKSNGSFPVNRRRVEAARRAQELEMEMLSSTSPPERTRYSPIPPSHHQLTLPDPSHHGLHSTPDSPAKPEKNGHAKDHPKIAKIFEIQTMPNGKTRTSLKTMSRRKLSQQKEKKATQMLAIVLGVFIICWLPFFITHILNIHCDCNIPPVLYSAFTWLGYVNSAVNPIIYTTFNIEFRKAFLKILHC

muscarinic M1 receptor = target: T1, muscarinic M1 receptor (Homo sapiens, UniProt P11229); details: cited from earlier work
T1 sequence (P11229 1-460): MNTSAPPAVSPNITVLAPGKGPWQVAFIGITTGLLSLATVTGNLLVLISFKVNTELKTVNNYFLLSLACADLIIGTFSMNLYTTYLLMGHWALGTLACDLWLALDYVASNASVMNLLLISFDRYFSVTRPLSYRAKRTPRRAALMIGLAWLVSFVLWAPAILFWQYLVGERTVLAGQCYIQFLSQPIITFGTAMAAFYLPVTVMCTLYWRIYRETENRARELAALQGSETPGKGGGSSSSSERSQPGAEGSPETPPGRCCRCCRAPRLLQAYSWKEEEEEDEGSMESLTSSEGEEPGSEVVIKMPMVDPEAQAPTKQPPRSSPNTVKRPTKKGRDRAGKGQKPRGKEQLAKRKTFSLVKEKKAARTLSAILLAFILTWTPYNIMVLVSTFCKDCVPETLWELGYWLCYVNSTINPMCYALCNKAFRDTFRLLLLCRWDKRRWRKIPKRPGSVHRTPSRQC

[2] = target: T2, noradrenaline α2C receptor (Homo sapiens, UniProt P18825); details: cited from earlier work
T2 sequence (P18825 1-462): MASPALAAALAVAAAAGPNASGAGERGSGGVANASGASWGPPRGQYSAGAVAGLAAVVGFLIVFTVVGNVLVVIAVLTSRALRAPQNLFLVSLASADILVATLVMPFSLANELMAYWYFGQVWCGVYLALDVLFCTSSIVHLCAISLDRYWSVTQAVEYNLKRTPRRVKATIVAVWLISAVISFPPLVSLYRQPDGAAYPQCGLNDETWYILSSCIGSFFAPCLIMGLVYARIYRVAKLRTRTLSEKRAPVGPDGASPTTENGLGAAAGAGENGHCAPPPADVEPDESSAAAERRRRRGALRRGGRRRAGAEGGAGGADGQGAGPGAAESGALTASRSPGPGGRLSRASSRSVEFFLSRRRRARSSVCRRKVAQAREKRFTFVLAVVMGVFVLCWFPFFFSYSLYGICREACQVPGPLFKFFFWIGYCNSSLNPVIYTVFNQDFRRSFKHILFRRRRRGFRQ

serotonin 5-HT7 receptor = serotonin 5-HT7 receptor (Homo sapiens, UniProt P34969); details: cited from earlier work
serotonin 5-HT7 receptor, sequence (P34969 whole entry): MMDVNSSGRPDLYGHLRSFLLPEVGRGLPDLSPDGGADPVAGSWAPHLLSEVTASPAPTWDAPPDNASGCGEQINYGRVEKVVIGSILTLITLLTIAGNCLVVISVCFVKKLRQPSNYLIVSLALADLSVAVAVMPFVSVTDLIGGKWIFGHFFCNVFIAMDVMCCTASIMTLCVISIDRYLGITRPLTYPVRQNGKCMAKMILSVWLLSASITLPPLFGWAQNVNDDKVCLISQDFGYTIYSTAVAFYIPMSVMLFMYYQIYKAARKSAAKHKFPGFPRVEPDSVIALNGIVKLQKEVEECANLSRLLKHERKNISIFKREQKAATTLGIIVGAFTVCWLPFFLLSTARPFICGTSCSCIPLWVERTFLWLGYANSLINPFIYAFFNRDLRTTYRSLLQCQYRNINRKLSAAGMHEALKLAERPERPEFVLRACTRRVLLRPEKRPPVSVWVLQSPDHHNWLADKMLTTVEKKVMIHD

histamine H1 receptor = histamine H1 receptor (Homo sapiens, UniProt P35367); details: cited from earlier work
histamine H1 receptor, sequence (P35367 whole entry): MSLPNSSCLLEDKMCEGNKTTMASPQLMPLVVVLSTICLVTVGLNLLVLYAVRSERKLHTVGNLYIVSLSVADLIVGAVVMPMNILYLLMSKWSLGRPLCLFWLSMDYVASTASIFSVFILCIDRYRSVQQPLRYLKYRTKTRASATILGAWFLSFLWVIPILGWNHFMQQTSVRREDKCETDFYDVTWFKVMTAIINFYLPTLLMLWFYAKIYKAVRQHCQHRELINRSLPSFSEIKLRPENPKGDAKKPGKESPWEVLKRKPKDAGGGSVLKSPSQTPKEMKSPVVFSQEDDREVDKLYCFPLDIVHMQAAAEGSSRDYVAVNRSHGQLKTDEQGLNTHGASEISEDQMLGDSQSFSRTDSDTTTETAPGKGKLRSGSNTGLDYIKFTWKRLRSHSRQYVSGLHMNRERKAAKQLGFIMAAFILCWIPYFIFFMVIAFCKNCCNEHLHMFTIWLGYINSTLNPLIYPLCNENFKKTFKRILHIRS

[3] = target: serotonin 5-HT2A receptor (Homo sapiens, UniProt P28223); details: cited from earlier work
serotonin 5-HT2A receptor, sequence (P28223 whole entry): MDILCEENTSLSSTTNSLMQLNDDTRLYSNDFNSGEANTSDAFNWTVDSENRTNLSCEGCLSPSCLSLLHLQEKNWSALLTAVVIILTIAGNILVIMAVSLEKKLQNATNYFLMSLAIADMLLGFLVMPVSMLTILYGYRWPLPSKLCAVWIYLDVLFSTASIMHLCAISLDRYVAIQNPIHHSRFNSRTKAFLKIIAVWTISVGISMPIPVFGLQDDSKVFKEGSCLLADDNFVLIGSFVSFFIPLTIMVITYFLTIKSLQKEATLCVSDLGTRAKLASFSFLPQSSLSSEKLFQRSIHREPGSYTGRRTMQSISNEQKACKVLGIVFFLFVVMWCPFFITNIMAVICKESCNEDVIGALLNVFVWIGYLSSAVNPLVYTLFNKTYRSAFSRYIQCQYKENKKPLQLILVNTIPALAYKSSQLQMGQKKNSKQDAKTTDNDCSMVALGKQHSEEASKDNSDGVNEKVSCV

[4] = target: T3, serotonin 5-HT1A receptor (Homo sapiens, UniProt P08908); details: cited from earlier work
T3 sequence (P08908 1-422): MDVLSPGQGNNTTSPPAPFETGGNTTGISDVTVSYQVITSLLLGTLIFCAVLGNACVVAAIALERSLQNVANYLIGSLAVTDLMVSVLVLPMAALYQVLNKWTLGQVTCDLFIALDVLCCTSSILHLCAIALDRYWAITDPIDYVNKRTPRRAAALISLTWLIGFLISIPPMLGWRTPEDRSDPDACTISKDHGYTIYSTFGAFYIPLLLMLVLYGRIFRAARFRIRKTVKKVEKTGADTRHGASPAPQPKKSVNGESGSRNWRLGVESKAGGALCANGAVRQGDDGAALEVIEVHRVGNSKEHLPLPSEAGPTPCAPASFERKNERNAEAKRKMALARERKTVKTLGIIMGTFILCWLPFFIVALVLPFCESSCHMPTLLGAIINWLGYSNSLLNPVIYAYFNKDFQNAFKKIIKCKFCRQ

[5] = PCP + BINA 30 mg/kg i.p. 30 min before NOR, n=7 to 9
[6] = PCP + clozapine 0.1 mg/kg, n=6 to 8
[7] = PCP + clozapine 0.3 mg/kg i.p. 30 min before NOR, n=6 to 8
[8] = PCP + LY379268 1 mg/kg i.p. 30 min before NOR, n=6 to 8
[9] = PCP + LY404039 1 mg/kg p.o. 60 min before NOR, n=7 to 8
[10] = PCP + lurasidone HCl 0.03 mg/kg i.p. 30 min before NOR, n=7 to 8
[11] = PCP + lurasidone HCl 0.1 mg/kg i.p. 30 min before NOR, n=7 to 8

## Cc1c(OCc2cccc(-c3ccc(C(=O)O)cc3)c2)cc2c(c1C)C(=O)C(C1CCCC1)C2 (stereo not shown) [BINA, 3′-(2-Cyclopentyl-6,7-dimethyl-1-oxoindan-5-yloxy-methyl)biphenyl-4-carboxylic acid]
[1]; BINA alone 30 mg/kg i.p.
  Effect on PCP-induced NOR deficits: did not attenuate the PCP-induced NOR deficits; also recorded: did not improve the PCP-induced deficit in NOR
[1]; [5]
  Acquisition (sec) Left, exploration time: 9.8 ± 1.5 s
  Acquisition (sec) Right, exploration time: 10.7 ± 2.0 s
  Retention (sec) Familiar, exploration time: 6.0 ± 1.1 s
  Retention (sec) Novel, exploration time: 7.9 ± 1.0 s

## CN1CCN(C2=Nc3cc(Cl)ccc3Nc3ccccc32)CC1 [Clozapine]
[1]; [6]
  Acquisition (sec) Left, exploration time: 12.7 ± 3.5 s
  Acquisition (sec) Right, exploration time: 10.6 ± 2.1 s
  Retention (sec) Familiar, exploration time: 9.1 ± 1.9 s
  Retention (sec) Novel, exploration time: 11.0 ± 2.8 s
[1]; [7]
  Acquisition (sec) Left, exploration time: 13.1 ± 2.9 s
  Acquisition (sec) Right, exploration time: 11.4 ± 2.5 s
  Retention (sec) Familiar, exploration time: 7.3 ± 1.7 s
  Retention (sec) Novel, exploration time: 16.3 ± 2.8 s
[1]
  Effective dose for reversing PCP-induced NOR deficits: 0.3 mg/kg
  Sub-effective dose in PCP-induced NOR deficit: 0.1 mg/kg

## N[C@@]1(C(=O)O)CO[C@H]2[C@H](C(=O)O)[C@H]21 [LY379268, (1R,4R,5S,6R)-4-Amino-2-oxabicyclo[3.1.0]hexane-4,6-dicarboxylic acid]
[1]; LY379268 alone 1 mg/kg i.p.
  Effect on PCP-induced NOR deficits: did not attenuate the PCP-induced NOR deficits; also recorded: did not attenuate the PCP-induced deficit in NOR
[1]; [8]
  Acquisition (sec) Left, exploration time: 12.4 ± 2.6 s
  Acquisition (sec) Right, exploration time: 11.0 ± 4.2 s
  Retention (sec) Familiar, exploration time: 8.3 ± 1.5 s
  Retention (sec) Novel, exploration time: 9.7 ± 2.2 s

## N[C@@]1(C(=O)O)CS(=O)(=O)[C@H]2[C@H](C(=O)O)[C@H]21 [LY404039, (−)-(1R,4S,5S,6S)-4-Amino-2-thiabicyclo[3.1.0]hexane-4,6-dicarboxylic acid S,S-dioxide]
[1]; LY404039 alone 1 mg/kg p.o.
  Effect on PCP-induced NOR deficits: did not attenuate the PCP-induced NOR deficits; also recorded: did not improve the PCP-induced deficit in NOR
[1]; [9]
  Acquisition (sec) Left, exploration time: 9.3 ± 0.8 s
  Acquisition (sec) Right, exploration time: 8.4 ± 0.9 s
  Retention (sec) Familiar, exploration time: 5.5 ± 1.1 s
  Retention (sec) Novel, exploration time: 7.3 ± 0.8 s

## O=C1[C@@H]2[C@H]3CC[C@H](C3)[C@@H]2C(=O)N1C[C@@H]1CCCC[C@H]1CN1CCN(c2nsc3ccccc23)CC1 [Lurasidone HCl]
[1]; [10]
  Acquisition (sec) Left, exploration time: 11.4 ± 3.1 s
  Acquisition (sec) Right, exploration time: 8.3 ± 1.8 s
  Retention (sec) Familiar, exploration time: 7.6 ± 2.3 s
  Retention (sec) Novel, exploration time: 8.9 ± 1.7 s
[1]; [11]
  Acquisition (sec) Left, exploration time: 10.9 ± 1.3 s
  Acquisition (sec) Right, exploration time: 10.9 ± 0.8 s
  Retention (sec) Familiar, exploration time: 4.6 ± 1.0 s
  Retention (sec) Novel, exploration time: 11.4 ± 2.2 s
[1]
  Effective dose for reversing PCP-induced NOR deficits: 0.1 mg/kg

## O=C1[C@@H]2[C@H]3CC[C@H](C3)[C@@H]2C(=O)N1C[C@@H]1CCCC[C@H]1CN1CCN(c2nsc3ccccc23)CC1 [Lurasidone, (3aR,4S,7R,7aS)-2-{(1R,2R)-2-[4-(1,2-benzisothiazol-3-yl)piperazin-1-ylmethyl]cyclo-hexylmethyl}hexahydro-4,7-methano-2H-isoindole-1,3-dione]
Dopamine D2 receptor
  Affinity for dopamine D2 receptors: high affinity
Muscarinic M1 receptor
  Affinity for muscarinic M1 receptors: minimal to no affinity
[2]
  Affinity for noradrenaline α2C receptors: high affinity
Serotonin 5-HT7 receptor
  Affinity for serotonin 5-HT7 receptors: high affinity
Histamine H1 receptor
  Affinity for histamine H1 receptors: minimal to no affinity
[3]
  Affinity for serotonin 5-HT2A receptors: high affinity
[4]
  Affinity for serotonin 5-HT1A receptors: high affinity
[1]
  Effective dose for reversing PCP-induced NOR deficits: 0.1 mg/kg
  Sub-effective dose in PCP-induced NOR deficit: 0.03 mg/kg
